Common to all, as to type: in vivo
Test [1] relates to Setaria viridis (SETVI). Briefly: Herbicidal pre-emergence action, section A (Table A8). The note with it: for pest or weed control at 320 g/ha: application rate 320 g/ha. An excerpt:
(§1) Seeds of mono- and dicotyledonous weed plants were sown in plastic pots (double sowings with one species of mono- and one species of dicotyledonous weed plants per pot), in sandy loam, and covered with soil. The compounds according to the invention, formulated in the form of wettable powders (WP) or as emulsifiable concentrates (EC), were applied to the surface of the covering soil as aqueous suspension or emulsion, with the addition of 0.5% of an additive, at an application rate of 600 l of water per hectare (converted). Following treatment, the pots were placed in a greenhouse and kept under optimum growth conditions for the test plants. The visual grading of the damage to the test plants was carried out after ca. 3 weeks in comparison to untreated controls (herbicidal effect in percent (%): 100% effect=plants have died off, 0% effect=as control plants).

For test [2], the system named is Amaranthus retroflexus (AMARE). Briefly: Herbicidal post-emergence action, section B (Table B11). Particulars: visual rating about 3 weeks after treatment vs untreated controls. The protocol:
(§2) Seeds of mono- and dicotyledonous weed plants were placed in plastic pots in sandy loam soil (doubly sown with in each case one species of mono- or dicotyledonous weed plants per pot), covered with soil and cultivated in a greenhouse under controlled growth conditions. 2 to 3 weeks after sowing, the test plants were treated at the one-leaf stage. The compounds of the invention, formulated in the form of wettable powders (WP) or as emulsion concentrates (EC), were applied onto the green parts of the plants as aqueous suspension or emulsion with addition of 0.5% additive at a water application rate of 600 liters per hectare (converted). After the test plants had been kept in the greenhouse under optimum growth conditions for about 3 weeks, the activity of the preparations was rated visually in comparison to untreated controls. For example, 100% activity=the plants have died, 0% activity=like control plants.

The subject of test [3] is Amaranthus retroflexus (AMARE). Nature of the test: Herbicidal pre-emergence action, section A (Table A11).
Description: as §1

Test [4] concerns Veronica persica (VERPE). Nature of the test: Herbicidal post-emergence action, section B (Table B10). Particulars: application rate 1280 g/ha; visual rating about 3 weeks after treatment vs untreated controls. The protocol:
as §2

Test [5] deals with Stellaria media (STEME). Briefly: Herbicidal pre-emergence action, section A (Table A9). Particulars: application rate 1280 g/ha; for pest or weed control at 1280 g/ha: Stellaria media, 504 h, read-out: pre-emergence activity against STEME in %.
Description: as §1

Test [6] relates to Digitaria sanguinalis (DIGSA). Briefly: Herbicidal pre-emergence action, section A (Table A12).
Description: as §1

The test system of test [7] is Kochia scoparia (KCHSC). Nature of the test: Herbicidal post-emergence action, section B (Table B4). The note with it: Bassia scoparia, post-emergence, 504 h; application rate 320 g/ha; visual rating about 3 weeks after treatment vs untreated controls; read-out: post-emergence activity against KCHSC in %. The protocol:
as §2

For test [8], the system named is Kochia scoparia (KCHSC). Nature of the test: Herbicidal pre-emergence action, section A (Table A4). The note with it: Bassia scoparia, pre-emergence, 504 h, visual grading after ca. 3 weeks vs untreated controls, read-out: pre-emergence activity against KCHSC in %; for pest or weed control at 320 g/ha: application rate 320 g/ha.
Description: as §1

The test system of test [9] is Poa annua (POAAN). Briefly: Herbicidal pre-emergence action, section A (Table A7). The note with it: Poa annua, pre-emergence, 504 h, visual grading after ca. 3 weeks vs untreated controls, read-out: pre-emergence activity against POAAN in %; for pest or weed control at 1280 g/ha: application rate 1280 g/ha.
Description: as §1

Test [10] has as its system Matricaria inodora (MATIN). Briefly: Herbicidal pre-emergence action, section A (Table A6). The note with it: Tripleurospermum inodorum, pre-emergence, 504 h; application rate 1280 g/ha; visual grading after ca. 3 weeks vs untreated controls; read-out: pre-emergence activity against MATIN in %.
Description: as §1

For test [11], the system named is Lolium rigidum (LOLRI). Nature of the test: Herbicidal pre-emergence action, section A (Table A5). Particulars: Lolium rigidum, pre-emergence, 504 h; application rate 1280 g/ha; visual grading after ca. 3 weeks vs untreated controls; read-out: pre-emergence activity against LOLRI in %.
Description: as §1

Test [12] relates to Stellaria media (STEME). Nature of the test: Herbicidal post-emergence action, section B (Table B9). The note with it: Stellaria media, post-emergence, 504 h; application rate 1280 g/ha; visual rating about 3 weeks after treatment vs untreated controls; read-out: post-emergence activity against STEME in %. The protocol: as §2
In test [13] the test system is Veronica persica (VERPE). Briefly: Herbicidal pre-emergence action, section A (Table A10). The note with it: Veronica persica, 504 h, application rate 1280 g/ha, read-out: pre-emergence activity against VERPE in %.
Description: as §1

Test [14] deals with Echinochloa crus-galli (ECHCG). Briefly: Herbicidal pre-emergence action, section A (Table A3). The note with it: Echinochloa crus-galli, pre-emergence, 504 h; application rate 1280 g/ha; visual grading after ca. 3 weeks vs untreated controls; read-out: pre-emergence activity against ECHCG in %.
Description: as §1

Test [15] has as its system Poa annua (POAAN). Nature of the test: Herbicidal post-emergence action, section B (Table B7). Particulars: Poa annua, post-emergence, 504 h; application rate 1280 g/ha; visual rating about 3 weeks after treatment vs untreated controls; read-out: post-emergence activity against POAAN in %. The protocol: as §2
[16] abbreviates: Setaria viridis, 504 h, read-out: pre-emergence activity against SETVI in %.
Where [17] appears, read: Amaranthus retroflexus, 504 h, application rate 320 g/ha, read-out: pre-emergence activity against AMARE in %.
Where [18] appears, read: Digitaria sanguinalis, 504 h, application rate 1280 g/ha, read-out: pre-emergence activity against DIGSA in %.

The results in this text go back to patent US20240381872A1, “SUBSTITUTED 2,3-DIHYDRO[1,3]THIAZOLO[4,5-B]PYRIDINES, SALTS THEREOF AND THEIR USE AS HERBICIDALLY ACTIVE SUBSTANCES” (BAYER AKTIENGESELLSCHAFT, priority 2021, published 2024).

Molecules are shown by their SMILES.

For the compound `O=C(N1CSc2cc(Br)c(-c3cccc(Cl)c3F)nc21)C12CCCC1C(Cl)=NO2` (centres unmarked) [Example I-126], the “pre-emergence activity against SETVI in %” value in test [1] (application rate 1280 g/ha) was found to be 90%. The “post-emergence activity against AMARE in %” value in [2] (application rate 320 g/ha) was 90%. Moreover, the “pre-emergence activity against AMARE in %” value in test [3] (application rate 320 g/ha) is listed as 90%. Moreover, in test [4], the “post-emergence activity against VERPE in %” value is recorded as 90%. Moreover, the “pre-emergence activity against STEME in %” value in test [5] amounted to 90%.
`CCc1ccccc1-c1nc2c(cc1Br)SCN2B(N)N` [Example I-080]: the “post-emergence activity against AMARE in %” value in [2] (application rate 1280 g/ha) was 90%. Further, the “pre-emergence activity against DIGSA in %” value in test [6] (application rate 1280 g/ha) is recorded as 100%.
`N#CCS(=O)(=O)N1CSc2cc(Br)c(-c3cccc(Cl)c3F)nc21` [Example I-131]: the “post-emergence activity against AMARE in %” value in test [2] (application rate 1280 g/ha) stood at 90%. Further, the “pre-emergence activity against AMARE in %” value in [3] (application rate 1280 g/ha) was found to be 90%. Besides, the “post-emergence activity against VERPE in %” value in test [4] worked out at 90%. Besides, the “pre-emergence activity against STEME in %” value in [5] stood at 90%.
Take `Cc1cc2c(nc1-c1cccc(F)c1F)N(C(=O)C(C)C)C[S+]2[O-]` (centres unmarked) [Example I-028]: the pest or weed control at 320 g/ha in test [1] (setting [16]) came out at 100%; in test [7], 90%; in test [8], 90%; in [3] (setting [17]), 90%. For the same compound, the pest or weed control at 1280 g/ha in test [9] was found to be 100%; in [10], 90%; in test [6] (setting [18]), 100%; in [5], 90%; in test [11], 100%; in [12] it was 90%.
As to `CCC(=O)N1C[S+]([O-])c2cc(C)c(-c3ccc(F)cc3F)nc21` (centres unmarked) [Example I-053], the pest or weed control at 320 g/ha was 100% in [1] (setting [16]); 90% in test [8]; 90% in test [3] (setting [17]); 100% in test [9] (application rate 320 g/ha); 100% in [6] (Digitaria sanguinalis, 504 h, application rate 320 g/ha, read-out: pre-emergence activity against DIGSA in %). Further, the pest or weed control at 1280 g/ha turned out to be 90% in test [2] (Amaranthus retroflexus, post-emergence, 504 h, application rate 1280 g/ha, read-out: post-emergence activity against AMARE in %); 90% in test [10]; 90% in test [5]; 100% in test [11]; 90% in test [13]; 100% in test [14].
Take `Cc1cccc(-c2nc3c(cc2Br)SCN3B(N)N)c1C` [Example I-105]: the “post-emergence activity against AMARE in %” value in test [2] (application rate 1280 g/ha) was found to be 90%.
As to `CCS(=O)(=O)N1C[S+]([O-])c2cc(Br)c(-c3ccccc3Cl)nc21` (centres unmarked) [Example I-134], the pest or weed control at 1280 g/ha in [1] (Setaria viridis, 504 h, application rate 1280 g/ha, read-out: pre-emergence activity against SETVI in %) stood at 100%; in [8] (application rate 1280 g/ha) it was 90%; in test [3] (Amaranthus retroflexus, 504 h, application rate 1280 g/ha, read-out: pre-emergence activity against AMARE in %), 90%; in [9], 100%; in test [6] (setting [18]) it was 100%; in test [15], 90%. Also, the pest or weed control at 1280 g/ha in [5] came out at 90%; in test [14], 100%.
